{"source": "ChEMBL document CHEMBL2396557", "about": "“Functional consequences of retro-inverso isomerization of a miniature protein inhibitor of the p53-MDM2 interaction” (Bioorg Med Chem, 2013)", "key": {"[1]": {"biological_target": "T1, E3 ubiquitin-protein ligase Mdm2 (Homo sapiens, UniProt Q00987)", "assay": "Binding affinity to MDM2 (25 to 109 amino acids) (unknown origin) after 30 mins by surface plasmon resosnance analysis"}, "[2]": {"biological_target": "T1, E3 ubiquitin-protein ligase Mdm2", "assay": "Binding affinity to MDM2 (25 to 109 amino acids) (unknown origin) at 100 uM after 30 mins by surface plasmon resosnance analysis"}}, "note": "Active and inactive are the calls of the source. The rule behind the calls is not given here."}
{"smiles": "CC(C)C[C@@H](NC(=O)[C@@H](CCC(N)=O)NC(=O)[C@H](N)Cc1cnc[nH]1)C(=O)N[C@@H]1CSSC[C@H]2NC(=O)[C@@H](CCCCN)NC(=O)[C@@H](C)NC(=O)[C@H]3CCCN3C(=O)[C@@H](CCC(=O)O)NC(=O)[C@@H]([C@H](C)O)NC(=O)[C@@H](Cc3ccccc3)NC(=O)[C@@H](CC(C)C)NC(=O)[C@@H](CSSC[C@H](C(=O)O)NC(=O)[C@@H](CC(N)=O)NC2=O)NC(=O)[C@@H](Cc2ccc(O)cc2)NC(=O)[C@@H](Cc2c[nH]c3ccccc23)NC(=O)[C@@H](CCCNC(=N)N)NC1=O", "values": [{"measurement": "Kd", "setting": "[1]", "result": 18.1, "unit": "µM"}]}
{"smiles": "CC(C)C[C@@H]1NC(=O)[C@@H]2CSSC[C@@H](C(=O)O)NC(=O)[C@H](CC(N)=O)NC(=O)[C@H](CSSC[C@H](NC(=O)[C@H](CC(C)C)NC(=O)[C@H](CCC(N)=O)NC(=O)[C@@H](N)Cc3cnc[nH]3)C(=O)N[C@@H](CCCNC(=N)N)C(=O)N[C@@H](Cc3c[nH]c4ccccc34)C(=O)N[C@@H](Cc3ccc(O)cc3)C(=O)N2)NC(=O)[C@H](CCCCN)NC(=O)[C@H](C)NC(=O)[C@@H]2CCCN2C(=O)[C@H](CCC(=O)O)NC(=O)[C@H]([C@@H](C)O)NC(=O)[C@H](Cc2ccccc2)NC1=O", "values": [{"measurement": "Activity", "setting": "[2]", "result": "inactive"}]}
